The values below come from EPA's ToxValDB 9.5.

Each structure is given as a SMILES string. “And” between values parts separate entries of the source, which are not always exact repeats. Equal values may be shown once.

In data set [1] the test system is Monkey. The following applies: duration: 13 weeks, oral, flavoured beverage, F, Cynomolgus, Estrogenic effects on maturation of vaginal epithelial cells.
For data set [2], the system named is Rattus norvegicus. The following applies: for LD50: acute.
Data set [3] concerns Mus musculus. The following applies: oral; for NOAEL: subchronic, duration: 13 weeks, gavage, B6C3F1.
For data set [4], the system named is Oryctolagus sp. The following applies: for LD50: acute, dermal.
The test system of data set [5] is Cricetulus sp. The following applies: duration: 5 days, oral, gavage, Hamster.
For data set [6], the system named is Rattus norvegicus. The following applies: M/F.
Data set [7] deals with Canidae. The following applies: subchronic, duration: 5 weeks, inhalation, unknown, renal.
The subject of data set [8] is Monkey. The following applies: chronic; duration: 5 years; inhalation; M/F; Rhesus; respiratory.
The test system of data set [9] is Anatidae. The following applies: oral.
Data set [10] deals with Homo sapiens. The experiment in a line: LD100; higher = less toxic. The following applies: acute; oral.
The test system of data set [11] is Oryctolagus sp. The experiment in a line: LC60; higher = less toxic. The following applies: acute; oral.
In data set [12] the test system is Mus musculus. The experiment in a line: LD100; higher = less toxic. The following applies: acute; oral; TAC:SWfBr.
Data set [13] has as its system Rattus norvegicus. The following applies: subchronic, oral, gavage, M/F.
Data set [14] relates to Rattus norvegicus. The experiment in a line: LC0; higher = less toxic. The following applies: acute; inhalation.
Data set [15] has as its system Homo sapiens. The following applies: clinical, oral.
The test system of data set [16] is Homo sapiens. The following applies: clinical, duration: 14 days, oral, M, hematological.
Data set [17] relates to Mouse, Rat. The following applies: subchronic; duration: 90 days; inhalation; intermittent; Adrenal: Lesions + Blood: Hematological effects + Kidney: Lesions + Liver: Lesions.
In data set [18] the test system is Dog, Rat. The following applies: subchronic; duration: 13 weeks; oral; diet; Kidney: Effects + Liver: Effects.
Data set [19] relates to Rattus norvegicus. The following applies: subchronic, M/F.
Data set [20] has as its system Canidae. The following applies: subchronic; duration: 13 weeks; oral; diet; M/F; Dog Other; Male reproductive toxicity and other effects (including decreased body weight gain), increased liver and kidney weights.
The subject of data set [21] is Gallus sp. The following applies: subchronic; duration: 3 months; oral; capsule; Nervous system: Ataxia + Nervous system: Delayed neurotoxicity + Whole body: Decreased weight.
Data set [22] relates to Gallus sp. The following applies: subchronic; duration: 90 days; oral; F; ataxia, delayed neurotoxicity and weight loss.
The subject of data set [23] is Rattus norvegicus. The following applies: subchronic, oral, gavage.
Data set [24] has as its system Cricetulus sp. The following applies: subchronic; duration: 13 weeks; inhalation; intermittent; Hamster; Nasal cavity: Olfactory degeneration.
Data set [25] has as its system Oryctolagus sp. The following applies: subchronic; inhalation; M/F; sedation.
Data set [26] concerns Mus musculus. The experiment in a line: LD0; higher = less toxic. The following applies: acute; injection; Intraperitoneal.
Where [27] appears, read: subchronic, duration: 13 weeks, oral, gavage, Fischer 344.
[28] abbreviates: duration: 90 days, oral, diet, increased liver and kidney weight.

Take `CC1CCCC(O)CCCCCc2cc(O)cc(O)c2C(=O)O1` (stereo not drawn): the NOEL in data set [1] and in [1] (subchronic) was 0.05 mg/kg-day throughout.

In the case of `COC(=O)CCSCCC(=O)OC` [Dimethyl 3,3'-thiodipropionate], the values for the median lethal dose (LD50) in data set [2] (oral) and in [3] (acute) were greater than 2500 mg/kg and greater than 2000 mg/kg, respectively. In addition, the NOAEL in data set [2] (reproduction developmental, duration: 13 weeks, oral, gavage, Sprague-Dawley) amounted to 350 mg/kg-day; in [2] (reproduction developmental, duration: 10 days, oral, gavage, F, Wistar) it was 1600 mg/kg-day; in data set [2] (subchronic, duration: 13 weeks, oral, gavage, Sprague-Dawley), 350 mg/kg-day; in data set [4] (developmental, duration: 13 days, oral, gavage, Dutch-belted), 1000 mg/kg-day; in data set [5] (developmental), 1600 mg/kg-day; in data set [5] (reproduction developmental, F), 1600 mg/kg-day.

Take `[U]` [Uranium]: the LOAEL in [6] (chronic, duration: 91 days, oral, drinking water, Sprague-Dawley, renal) stood at 0.06 mg/kg-day; in data set [7] (not reported), 0.15 mg/m3; in data set [8] it was 5.1 mg/m3. In addition, the NOAEL worked out at 1.1 mg/m3 in data set [7] (unspecified) and 16 mg/kg-day in [9].

In [2] (oral), `CCCCCCCCCCCCCCCCCC(=O)O` [Octadecanoic acid] registered an LD50 of 4600 mg/kg. In data set [10], this compound returned an LD100 of 14300 mg/kg.

`Cc1ccc(C)c(O)c1` [2,5-Dimethylphenol]: the LD50 in [2] (oral) came to 444 mg/kg. Besides, in data set [11], the LC60 was found to be 938 mg/kg.

The compound `C[N+](C)(C)Cc1ccccc1.[Cl-]` [Benzyltrimethylammonium chloride] displayed an LD50 in data set [2] (oral, gavage, Fischer 344) of 180 mg/kg. The NOAEL is 30 mg/kg-day in data set [2] (short-term, duration: 28 days, oral, Crj:CD); 60 mg/kg-day in [2] (short-term, duration: 28 days, oral, F, Crj:CD); 25 mg/kg-day in [2] (setting [27]); 25 mg/kg-day in data set [3]. Moreover, in data set [12], the LD100 came out at 1600 mg/kg. Also, the NOEL in data set [13] (Fischer 344, Deaths + Clinical Observation: Nasal and eye discharge Lacrimation Salivation Tremors + Functional Observational Battery: Lacrimation or …) was less than 12.5 mg/kg-day.

For the compound `O=C(O)CCl` [Chloroacetic acid], the NOAEL came to 25 mg/kg-day in [2] (chronic, duration: 208 days, oral, diet, M, Wistar); 30 mg/kg-day in data set [2] (setting [27]); 100 mg/kg-day in [3]. In addition, the LC0 in [14] was 0.005 mg/L. The NOEL in data set [13] (duration: 13 weeks, Fischer 344, Deaths + Body Weight Changes: decrease + Blood Chemistry: Ch E decrease, Ca decrease, TP decrease + Absolute Organ Weight: Heart decrease, …) is less than 30 mg/kg-day.

`[Co]` [Cobalt]: the LOAEL in [15] (duration: 2 weeks, Endocrine) amounted to 1 mg/kg-day; in [16], 1 mg/kg-day. Moreover, in data set [16] (capsule), the NOAEL is 0.8 mg/kg-day.

In the case of `O=[N+]([O-])c1ccccc1` [Nitrobenzene], the LOAEL is 25.2 mg/m3 in data set [6] (subchronic, duration: 90 days, inhalation, F344 / Sprague-Dawley, hematological) and 25 mg/m3 in data set [17]. In addition, the NOEL is less than 5 mg/kg-day in [13] (Fischer 344, Deaths + Body Weight Changes: decrease + Food Consumption: decrease + Hematology: RBC decrease, WBC increase, , Hgb decrease, , Hct decrease…) and less than 20 mg/kg-day in [13] (Sprague-Dawley, Deaths + Clinical Observation: Piloerection, salivation, emacation Anemia, torticollis, rotating movement, abnormal gait + Body Weight …).

Consider `Cc1cc(Cl)ccc1OCCCC(=O)O` [Thitrol], for which the NOEL in data set [18], in [19] (setting [28]) and in data set [20] was 12 mg/kg-day each time. The LEL in data set [19] (setting [28]) and in [20] was 40 mg/kg-day in each case.

Consider `O=[N+]([O-])OCC(CO[N+](=O)[O-])O[N+](=O)[O-]` [Trinitroglycerin], for which the LOAEL in data set [15] (Hematologic) stood at 0.036 mg/kg-day.

In [2] (oral, gavage, Crl), `CCCCSP(SCCCC)SCCCC` [Merphos] displayed an LD50 of 2480 mg/kg. Further, the NOEL in data set [21] stood at 0.1 mg/kg-day. In data set [22], this compound gave an LOAEL of 0.5 mg/kg-day and an NOEL of 0.1 mg/kg-day.

For the compound `O=Cc1ccco1` [Furfural], the LOAEL in [23] (duration: 13 weeks, Liver: Hepatotoxicity) worked out at 7.9 mg/kg-day; in data set [19] (oral, hepatocellular vacuolization), 11 mg/kg-day. For the same compound, the NOAEL in [24] was found to be 78.6 mg/m3. The NOEL in data set [13] (duration: 13 weeks, Fischer 344, Deaths + Absolute Organ Weight: Kidney increase, Liver increase + Relative Organ Weight: Kidney increase, Liver increase + Histopathology: …) is less than 11 mg/kg-day.

Take `COCC(C)O` (stereo not drawn) [1-Methoxy-2-propanol]: the NOEL in data set [23] (duration: 35 days, Kidney: Histopathology + Liver: Histopathology) was found to be 947 mg/kg-day. In data set [19] (inhalation, sedation), the LOAEL was 11100 mg/m3 and the NOAEL came to 3680 mg/m3. In [25], this compound showed an LOAEL of 11100 mg/m3 and an NOAEL of 3680 mg/m3.

Consider `CCCCC(CC)COP(=O)(O)OCC(CC)CCCC` (stereo not drawn) [Bis(2-ethylhexyl) phosphate], for which the LD0 in data set [26] amounted to 63 mg/kg. Further, the LD50 in data set [2] (injection, Intraperitoneal) was ≥ 50 mg/kg and ≤ 100 mg/kg; in data set [2] (oral), 4740 mg/kg; in data set [2] (oral, gavage, Wistar), 1400 mg/kg; in data set [4], 1200 mg/kg; in [4] (occlusive, New Zealand), greater than 2000 mg/kg.

For orientation: LD50 means the dose at which mortality reaches 50%. A word on the NOAEL: it is the highest tested level that showed no adverse finding. In general, LOAEL refers to the lowest dose or exposure tested at which an adverse effect was seen.
